The text below walks through data of US20190002427A1, “STEREOISOMER OF FLOCOUMAFEN, COMPOSITION AND RODENTICIDE BAIT COMPRISING SAME, AND METHOD FOR CONTROLLING TARGET RODENT PESTS” (priority 2015, published 2019).

Series [1] is classed as in vivo, Sprague-Dawley rats. Particulars: relative to the other configurational stereoisomers; in words. As for the experimental part: About 0.525 g (±0.025 g) of rat liver is weighed out accurately and placed in a 50 mL polypropylene tube. 10 mL of acetone are added and the suspension is homogenized using an Ultra-Turrax® homogenizer/disperser for a time of about 30 seconds. The homogenizer/disperser shaft is rinsed with hot water and then twice with 20 mL of acetone in a polypropylene tube. The homogenate is centrifuged for 5 minutes at a centrifugation speed of 3000 rpm (revolutions per minute). The supernatant is collected and transferred into a test tube. The sample is subjected to evaporation under a stream of nitrogen (N2) at a temperature of 40° C. so as to form a dry extract.
1 mL of acetonitrile is added to the tube containing the dry extract so as to dissolve it. […]
The configurational stereoisomers of flocoumafen are separated by high-pressure liquid chromatography using a LUX® Cellulose-4 chiral column (00F-4490-B0, Phenomenex, Le Pecq, France) as stationary phase and a mixture formed from acetonitrile (A) and water comprising 0.1% by volume of formic acid (B), with an A/B volume ratio of 92/8, as mobile phase with a flow rate of the liquid mobile phase in the chromatography column of 0.25 mL/minute. […] In particular, the MRM (“Multiple Reaction Monitoring”) transitions m/z 541.1→382.1 and m/z 541.1→161, corresponding to the flocoumafen signal, are detected. […]

Series [2] has as its system target rodent pests. As to the kind of experiment: Rodenticidal efficacy. Type of series: in vivo. The following applies: relative to the other configurational stereoisomers; in words, no data shown.

In the case of `O=c1oc2ccccc2c(O)c1C1CC(c2ccc(OCc3ccc(C(F)(F)F)cc3)cc2)Cc2ccccc21` (single isomer, unassigned) [Enantiomer E4, flocoumafen], the “Persistence in the liver” value in series [1] is “more persistent in the liver of the target rodent pests”. Further, the Rodenticidal efficacy entry in series [2] is “increased rodenticidal efficacy relative to the other configurational stereoisomers”.
